Source: ChEMBL document CHEMBL5131432, “Novel 2,4-disubstituted quinazoline analogs as antibacterial agents with improved cytotoxicity profile: Modification of the benzenoid part” (Bioorg Med Chem Lett, 2022)

What was measured:
[1] = test system: Staphylococcus aureus; assay: Antibacterial activity against methicillin-sensitive Staphylococcus aureus Newman assessed as bacterial growth inhibition; assay type: functional
[2] = test system: Staphylococcus aureus; assay: Antibacterial activity against methicillin-resistant Staphylococcus aureus N315 assessed as bacterial growth inhibition; assay type: functional
[3] = test system: Staphylococcus aureus; assay: Antibacterial activity against methicillin-resistant and vancomycin-intermediate Staphylococcus aureus Mu50 assessed as bacterial growth inhibition; assay type: functional
[4] = test system: Streptococcus pneumoniae; assay: Antibacterial activity against Streptococcus pneumoniae DSM-20566 assessed as bacterial growth inhibition; assay type: functional
[5] = test system: Streptococcus pneumoniae; assay: Antibacterial activity against penicillin-resistant Streptococcus pneumoniae DSM-11865 assessed as bacterial growth inhibition; assay type: functional
[6] = test system: Enterococcus faecium; assay: Antibacterial activity against Enterococcus faecium DSM-20477 assessed as bacterial growth inhibition; assay type: functional
[7] = test system: Enterococcus faecalis; assay: Antibacterial activity against Enterococcus faecalis DSM-20478 assessed as bacterial growth inhibition; assay type: functional
[8] = test system: Escherichia coli; assay: Antibacterial activity against wild type Escherichia coli DSM-11116 assessed as bacterial growth inhibition; assay type: functional
[9] = test system: Escherichia coli; assay: Antibacterial activity against Escherichia coli K12 harbouring TolC-deficient mutant assessed as bacterial growth inhibition; assay type: functional
[10] = test system: Mycolicibacterium smegmatis; assay: Antibacterial activity against Mycobacterium smegmatis mc2 155 assessed as bacterial growth inhibition; assay type: functional
[11] = Chemical stability of compound in DMSO assessed as change in physico-chemical properties incubated for 2 days; assay type: physicochemical; conditions: 48 h; time 2 day
[12] = Chemical stability of compound in DMSO assessed as change in retardation factor incubated for 2 days; assay type: physicochemical; conditions: 48 h; time 2 day
[13] = Chemical stability of compound in DMSO assessed as change in mass and purity incubated for 2 days by LC-MS analysis; assay type: physicochemical; conditions: 48 h; time 2 day
[14] = Stability of the compound in presence of 25kGy gamma irradiation assessed as change in mass and purity by LC-MS analysis; assay type: physicochemical
[15] = Cytotoxicity against human HepG2 cells assessed as inhibition of cell growth; assay type: toxicity, cell-based

CCCCNc1nc(SC)nc2n[nH]cc12
> 128 µg/mL: MIC [4] | MIC [5] | MIC [6] | MIC [7] | MIC [8] | MIC [10]
64 µg/mL: MIC [1] | MIC [2] | MIC [3] | MIC [9]

CCCCNc1nc(SCCCC)nc2cc(F)ccc12
> 128 µg/mL: MIC [1] | MIC [2] | MIC [3] | MIC [4] | MIC [5] | MIC [6] | MIC [7] | MIC [8] | MIC [9] | MIC [10]
Stable: Stability [11] | Stability [12] | Stability [13] | Stability [14]

CCCCNc1nc(SCCCC)nc2c1cnn2CCCC
> 128 µg/mL: MIC [1] | MIC [2] | MIC [3] | MIC [5] | MIC [6] | MIC [7] | MIC [8] | MIC [9] | MIC [10]
8 µg/mL: MIC [4]

CCCCSc1nc(SCCCC)c2cc(N)ccc2n1
32 µg/mL: MIC [7] | MIC [10]
8 µg/mL: MIC [1] | MIC [5] | MIC [6]
> 128 µg/mL: MIC [8] | MIC [9]
> 37 µg/mL: IC50 [15]
4 µg/mL: MIC [2] | MIC [3] | MIC [4]

CCCCNc1nc(SCCCC)nc2cc(-c3cccnc3)ccc12
> 128 µg/mL: MIC [1] | MIC [2] | MIC [3] | MIC [4] | MIC [5] | MIC [6] | MIC [7] | MIC [8] | MIC [9] | MIC [10]

CCCCNc1nc(SCCCC)nc2ccc(Cl)cc12
> 128 µg/mL: MIC [1] | MIC [2] | MIC [3] | MIC [4] | MIC [5] | MIC [6] | MIC [7] | MIC [8] | MIC [9] | MIC [10]

CCCCNc1nc(SCCCC)nc2n[nH]cc12
Stable: Stability [11] | Stability [12] | Stability [13] | Stability [14]
4 µg/mL: MIC [9]
> 128 µg/mL: MIC [1] | MIC [2] | MIC [3] | MIC [4] | MIC [5] | MIC [6] | MIC [7] | MIC [8] | MIC [10]

CCCCSc1nc(SCCCC)c2cc(NS(=O)(=O)CC)ccc2n1
> 128 µg/mL: MIC [1] | MIC [2] | MIC [3] | MIC [8] | MIC [9] | MIC [10]
8 µg/mL: MIC [6] | MIC [7]
4 µg/mL: MIC [4]
> 37 µg/mL: IC50 [15]
3 µg/mL: MIC [5]

CCCCNc1nc(SCCCC)nc2ccc(-c3cn[nH]c3)cc12
> 128 µg/mL: MIC [1] | MIC [2] | MIC [3] | MIC [4] | MIC [5] | MIC [6] | MIC [7] | MIC [8] | MIC [9] | MIC [10]

CCCCNc1nc(SCCCC)nc2cc(Cl)ccc12
> 128 µg/mL: MIC [1] | MIC [2] | MIC [3] | MIC [4] | MIC [5] | MIC [6] | MIC [7] | MIC [8] | MIC [9] | MIC [10]

CCCCNc1nc(SCCCC)nc2ccc(-c3cccc(OC)c3)cc12
> 128 µg/mL: MIC [1] | MIC [2] | MIC [3] | MIC [4] | MIC [5] | MIC [6] | MIC [7] | MIC [8] | MIC [9] | MIC [10]

CCCCNc1nc(SCCCC)nc2ccc(-c3ccncc3)cc12
> 128 µg/mL: MIC [1] | MIC [2] | MIC [3] | MIC [4] | MIC [5] | MIC [6] | MIC [7] | MIC [8] | MIC [9] | MIC [10]

CCCCNc1nc(SCCCC)nc2ccc(-c3cccc(CO)c3)cc12
> 128 µg/mL: MIC [1] | MIC [2] | MIC [3] | MIC [4] | MIC [5] | MIC [6] | MIC [7] | MIC [8] | MIC [9] | MIC [10]

CCCCNc1nc(SCCCC)nc2ccc(-c3cccc(C(=O)O)c3)cc12
4 µg/mL: MIC [4]
> 37 µg/mL: IC50 [15]
8 µg/mL: MIC [1] | MIC [2] | MIC [3] | MIC [6] | MIC [7]
> 128 µg/mL: MIC [8] | MIC [9] | MIC [10]
16 µg/mL: MIC [5]

CCCCNc1nc(SCCCC)nc2nn(CCCC)cc12
> 128 µg/mL: MIC [1] | MIC [2] | MIC [3] | MIC [4] | MIC [5] | MIC [6] | MIC [7] | MIC [8] | MIC [9] | MIC [10]

CCCCNc1nc(SCCCC)nc2ccc(F)cc12
> 128 µg/mL: MIC [1] | MIC [2] | MIC [3] | MIC [4] | MIC [5] | MIC [6] | MIC [7] | MIC [8] | MIC [9] | MIC [10]

CC(=O)NC[C@H]1CN(c2ccc(N3CCOCC3)c(F)c2)C(=O)O1 [LINEZOLID]
4 µg/mL: MIC [6] | MIC [10]
16 µg/mL: MIC [9]
1 µg/mL: MIC [1]
> 64 µg/mL: MIC [8]

CCCCNc1nc(SCCCC)nc2ccc(-c3cccnc3)cc12
> 128 µg/mL: MIC [1] | MIC [2] | MIC [3] | MIC [4] | MIC [5] | MIC [6] | MIC [7] | MIC [8] | MIC [9] | MIC [10]

CCCCNc1nc(SCCCC)nc2sccc12
16 µg/mL: MIC [10]
8 µg/mL: MIC [1] | MIC [4] | MIC [5] | MIC [9]
32 µg/mL: MIC [2]
> 37 µg/mL: IC50 [15]
> 128 µg/mL: MIC [3] | MIC [6] | MIC [7] | MIC [8]

CCCCNc1nc(SCCCC)nc2ccc(-c3ccccc3)cc12
Stable: Stability [11] | Stability [12] | Stability [13] | Stability [14]
> 128 µg/mL: MIC [1] | MIC [2] | MIC [3] | MIC [4] | MIC [5] | MIC [6] | MIC [7] | MIC [8] | MIC [9] | MIC [10]

CCCCNc1nc(SCCCC)nc2cc(-c3ccccc3)ccc12
> 128 µg/mL: MIC [1] | MIC [2] | MIC [3] | MIC [4] | MIC [5] | MIC [6] | MIC [7] | MIC [8] | MIC [9] | MIC [10]

CN[C@H](CC(C)C)C(=O)N[C@H]1C(=O)N[C@@H](CC(N)=O)C(=O)N[C@H]2C(=O)N[C@H]3C(=O)N[C@H](C(=O)N[C@H](C(=O)O)c4cc(O)cc(O)c4-c4cc3ccc4O)[C@H](O)c3ccc(c(Cl)c3)Oc3cc2cc(c3O[C@@H]2O[C@H](CO)[C@@H](O)[C@H](O)[C@H]2O[C@H]2C[C@](C)(N)[C@H](O)[C@H](C)O2)Oc2ccc(cc2Cl)[C@H]1O [VANCOMYCIN]
> 64 µg/mL: MIC [8] | MIC [9]
1 µg/mL: MIC [5]
8 µg/mL: MIC [3] | MIC [10]
0.5 µg/mL: MIC [4] | MIC [7]

CCCCNc1nc(SCCCC)nc2ccc(-c3cccc(C#N)c3)cc12
> 128 µg/mL: MIC [1] | MIC [2] | MIC [3] | MIC [4] | MIC [5] | MIC [6] | MIC [7] | MIC [8] | MIC [9] | MIC [10]

CCCCNc1nc(SCCCC)nc2ccc(Br)cc12
> 128 µg/mL: MIC [1] | MIC [2] | MIC [3] | MIC [4] | MIC [5] | MIC [6] | MIC [7] | MIC [8] | MIC [9] | MIC [10]

CCCCNc1nc(SCCCC)nc2ccc(-c3ccc(C(=O)O)cc3)cc12
> 128 µg/mL: MIC [1] | MIC [2] | MIC [3] | MIC [4] | MIC [5] | MIC [6] | MIC [7] | MIC [8] | MIC [9] | MIC [10]

CCCCNc1nc(SCCCC)nc2ccc(NC(=O)NCC)cc12
> 128 µg/mL: MIC [1] | MIC [2] | MIC [3] | MIC [4] | MIC [5] | MIC [6] | MIC [7] | MIC [8] | MIC [9] | MIC [10]

CCCCNc1nc(SCCCC)nc2cc(Br)ccc12
> 128 µg/mL: MIC [1] | MIC [2] | MIC [3] | MIC [4] | MIC [5] | MIC [6] | MIC [7] | MIC [8] | MIC [9] | MIC [10]
